Data taken from US20120142705A1, “ISATIN AND OXINDOLE COMPOUNDS” (priority 2010, published 2012).

The compounds below were run against T1, Recombinant human liver GK1 (GST-GK) (Homo sapiens, UniProt P35557) (assay: In vitro glucokinase activity, G6PDH-coupled spectrophotometric assay). Conditions: 5 mM D-glucose, 30° C., pH 7.1.
T1 construct: made in house; host or cells: E. coli
T1 sequence (P35557 1-466 isoform P35557-2): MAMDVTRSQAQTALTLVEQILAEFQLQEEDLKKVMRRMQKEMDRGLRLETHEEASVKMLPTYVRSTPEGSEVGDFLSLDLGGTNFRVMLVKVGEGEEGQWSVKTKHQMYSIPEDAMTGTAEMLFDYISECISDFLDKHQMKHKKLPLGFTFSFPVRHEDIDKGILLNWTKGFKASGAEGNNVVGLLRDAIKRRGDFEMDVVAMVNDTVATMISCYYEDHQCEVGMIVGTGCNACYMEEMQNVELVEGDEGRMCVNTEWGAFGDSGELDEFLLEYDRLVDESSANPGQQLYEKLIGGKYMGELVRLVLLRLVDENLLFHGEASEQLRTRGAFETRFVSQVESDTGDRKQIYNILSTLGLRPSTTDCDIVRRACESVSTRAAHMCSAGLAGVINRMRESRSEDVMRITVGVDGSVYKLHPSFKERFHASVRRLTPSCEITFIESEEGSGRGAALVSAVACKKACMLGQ
Format: biochemical
Description: Glucokinase In Vitro Assay Protocol: Glucokinase (GK) was assayed by coupling the production of glucose-6-phosphate to the generation of NADH with glucose-6-phosphate dehydrogenase (G6PDH, 0.75-1 kunits/mg; Boehringer Mannheim, Indianapolis, Ind.) from Leuconostoc mesenteroides as the coupling enzyme (Scheme 2).
Recombinant human liver GK1 was expressed in E. coli as a glutathione S-transferase fusion protein (GST-GK) [Liang et al, 1995] and was purified by chromatography over a glutathione-Sepharose 4B affinity column using the procedure provided by the manufacturer (Amersham Pharmacia Biotech, Piscataway, N.J.).
The assay was conducted at 30° C. in a flat bottom 96-well tissue culture plate from Costar (Cambridge, Mass.) with a final incubation volume of 120 μL. The incubation reaction contained the following: 25 mM Hepes buffer (pH 7.1), 25 mM KCl, 5 mM D-glucose, 1 mM ATP, 1.8 mM NAD, 2 mM MgCl2, 1 μM sorbitol-6-phosphate, 1 mM dithiothreitol, test drug or 10% dimethylsulfoxide, ˜7 units/ml G6PDH, and GK (see below). All organic reagents were >98% pure and were from Boehringer Mannheim with the exceptions of D-glucose and Hepes which were from Sigma Chemical Co, St Louis, Mo. Test compounds were dissolved in dimethylsulfoxide and were added to the incubation reaction minus GST-GK in a volume of 12 μL to yield a final dimethylsulfoxide concentration of 10%. This mix was pre-incubated in the temperature controlled chamber of a SPECTRAmax 250 microplate spectrophotometer (Molecular Devices Corporation, Sunnyvale, Calif.) for 10 minutes to allow temperature equilibrium and then the reaction was started by the addition of 20 μL GST-GK.
After addition of enzyme, the increase in optical density (OD) at 340 nm was monitored spectrophotometrically to determine the rate of change (OD340 per min). The GK activity (OD340/min) in control wells (10% dimethylsulfoxide minus GK activators) was compared with the activity in wells containing test GK activators, and the concentration of activator that produced a 50% increase in the activity of GK, i.e., the SC1.5, was calculated.

| SMILES | SC1.5 (concentration of activator that produced a 50% increase in the activity of GK) [µM] |
| --- | --- |
| COc1ccc2c(c1)CC(=O)N2C(CC(C)C)C(=O)Nc1nccs1 (stereo not shown) [Example 56, 2-(5-Methoxy-2-oxo-2,3-dihydro-indol-1-yl)-4-methyl-pentanoic acid thiazol-2-ylamide] | 22.75 |
| COc1ccc2c(c1)CC(=O)N2C(CC(C)C)C(=O)Nc1ccccn1 (stereo not shown) [Example 57, 2-(5-Methoxy-2-oxo-2,3-dihydro-indol-1-yl)-4-methyl-pentanoic acid pyridin-2-ylamide] | 13.89 |
| CC(C)(O)Cn1ccc(NC(=O)C(CC2CCCC2)N2C(=O)Cc3ccccc32)n1 (stereo not shown) [Example 59, 3-Cyclopentyl-N-[1-(2-hydroxy-2-methyl-propyl)-1H-pyrazol-3-yl]-2-(2-oxo-2,3-dihydro-indol-1-yl)-propionamide] | 3.87 |
| O=C1C(=O)N(C(CC2CCCC2)C(=O)Nc2cnccn2)c2ccc(Br)cc21 (stereo not shown) [Example 60, 2-(5-Bromo-2,3-dioxo-2,3-dihydro-indol-1-yl)-3-cyclopentyl-N-pyrazin-2-yl-propionamide] | 5.48 |
| O=C1C(=O)N(C(CC2CCCC2)C(=O)Nc2ccccn2)c2ccc(Br)cc21 (stereo not shown) [Example 61, 2-(5-Bromo-2,3-dioxo-2,3-dihydro-indol-1-yl)-3-cyclopentyl-N-pyridin-2-yl-propionamide] | 0.95 |
| Cn1ccc(NC(=O)C(CC2CCCC2)N2C(=O)C(=O)c3cc(Br)ccc32)n1 (stereo not shown) [Example 62, 2-(5-Bromo-2,3-dioxo-2,3-dihydro-indol-1-yl)-3-cyclopentyl-N-(1-methyl-1H-pyrazol-3-yl)-propionamide] | 6.18 |
| O=C1C(=O)N(C(CC2CCCC2)C(=O)Nc2nccs2)c2ccc(Br)cc21 (stereo not shown) [Example 63, 2-(5-Bromo-2,3-dioxo-2,3-dihydro-indol-1-yl)-3-cyclopentyl-N-thiazol-2-yl-propionamide] | 2.18 |
| O=C(Nc1ccccn1)C(CC1CCCC1)N1C(=O)Cc2cc(Br)ccc21 (stereo not shown) [Example 64, 2-(5-Bromo-2-oxo-2,3-dihydro-indol-1-yl)-3-cyclopentyl-N-pyridin-2-yl-propionamide] | 0.48 |
| Cn1ccc(NC(=O)C(CC2CCCC2)N2C(=O)Cc3cc(Br)ccc32)n1 (stereo not shown) [Example 65, 2-(5-Bromo-2-oxo-2,3-dihydro-indol-1-yl)-3-cyclopentyl-N-(1-methyl-1H-pyrazol-3-yl)-propionamide] | 2.71 |
| O=C(Nc1nccs1)C(CC1CCCC1)N1C(=O)Cc2cc(Br)ccc21 (stereo not shown) [Example 66, 2-(5-Bromo-2-oxo-2,3-dihydro-indol-1-yl)-3-cyclopentyl-N-thiazol-2-yl-propionamide] | 1.69 |
| O=C(Nc1cnccn1)C(CC1CCCC1)N1C(=O)Cc2cc(Br)ccc21 (stereo not shown) [Example 67, 2-(5-Bromo-2-oxo-2,3-dihydro-indol-1-yl)-3-cyclopentyl-N-pyrazin-2-yl-propionamide] | 1.28 |
| CC(C)CC(C(=O)Nc1ccccn1)N1C(=O)C(=O)c2cc(Br)ccc21 (stereo not shown) [Example 69, 2-(5-Bromo-2,3-dioxo-2,3-dihydro-indol-1-yl)-4-methyl-pentanoic acid pyridin-2-ylamide] | 7.43 |
| CC(C)CC(C(=O)Nc1nccs1)N1C(=O)Cc2cc(Br)ccc21 (stereo not shown) [Example 72, 2-(5-Bromo-2-oxo-2,3-dihydro-indol-1-yl)-4-methyl-pentanoic acid thiazol-2-ylamide] | 5.82 |
| CC(C)CC(C(=O)Nc1ccn(C)n1)N1C(=O)Cc2cc(Br)ccc21 (stereo not shown) [Example 73, 2-(5-Bromo-2-oxo-2,3-dihydro-indol-1-yl)-4-methyl-pentanoic acid (1-methyl-1H-pyrazol-3-yl)-amide] | 17.96 |
| CC(C)CC(C(=O)Nc1ccccn1)N1C(=O)Cc2cc(Br)ccc21 (stereo not shown) [Example 74, 2-(5-Bromo-2-oxo-2,3-dihydro-indol-1-yl)-4-methyl-pentanoic acid pyridin-2-ylamide] | 3.24 |
| CC(C)CC(C(=O)Nc1cnccn1)N1C(=O)Cc2cc(Br)ccc21 (stereo not shown) [Example 75, 2-(5-Bromo-2-oxo-2,3-dihydro-indol-1-yl)-4-methyl-pentanoic acid pyrazin-2-ylamide] | 11.4 |
| Cc1ccc2c(c1)C(=O)C(=O)N2C(CC1CCCC1)C(=O)Nc1cnccn1 (stereo not shown) [Example 76, 3-Cyclopentyl-2-(5-methyl-2,3-dioxo-2,3-dihydro-indol-1-yl)-N-pyrazin-2-yl-propionamide] | 22.77 |
| Cc1ccc2c(c1)C(=O)C(=O)N2C(CC1CCCC1)C(=O)Nc1ccccn1 (stereo not shown) [Example 77, 3-Cyclopentyl-2-(5-methyl-2,3-dioxo-2,3-dihydro-indol-1-yl)-N-pyridin-2-yl-propionamide] | 6.67 |
| Cc1ccc2c(c1)C(=O)C(=O)N2C(CC1CCCC1)C(=O)Nc1ccn(C)n1 (stereo not shown) [Example 78, 3-Cyclopentyl-2-(5-methyl-2,3-dioxo-2,3-dihydro-indol-1-yl)-N-(1-methyl-1H-pyrazol-3-yl)-propionamide] | 29.38 |
| Cc1ccc2c(c1)C(=O)C(=O)N2C(CC1CCCC1)C(=O)Nc1nccs1 (stereo not shown) [Example 79, 3-Cyclopentyl-2-(5-methyl-2,3-dioxo-2,3-dihydro-indol-1-yl)-N-thiazol-2-yl-propionamide] | 16.22 |
| Cc1ccc2c(c1)CC(=O)N2C(CC1CCCC1)C(=O)Nc1ccccn1 (stereo not shown) [Example 80, 3-Cyclopentyl-2-(5-methyl-2-oxo-2,3-dihydro-indol-1-yl)-N-pyridin-2-yl-propionamide] | 3.83 |
| Cc1ccc2c(c1)CC(=O)N2C(CC1CCCC1)C(=O)Nc1ccn(C)n1 (stereo not shown) [Example 81, 3-Cyclopentyl-2-(5-methyl-2-oxo-2,3-dihydro-indol-1-yl)-N-(1-methyl-1H-pyrazol-3-yl)-propionamide] | 11.29 |
| Cc1ccc2c(c1)CC(=O)N2C(CC1CCCC1)C(=O)Nc1nccs1 (stereo not shown) [Example 82, 3-Cyclopentyl-2-(5-methyl-2-oxo-2,3-dihydro-indol-1-yl)-N-thiazol-2-yl-propionamide] | 2.45 |
| Cc1ccc2c(c1)CC(=O)N2C(CC1CCCC1)C(=O)Nc1cnccn1 (stereo not shown) [Example 83, 3-Cyclopentyl-2-(5-methyl-2-oxo-2,3-dihydro-indol-1-yl)-N-pyrazin-2-yl-propionamide] | 4.47 |

Same assay, conditions: @ 30 uM; 5 mM D-glucose, 30° C.

| SMILES | fold induction at 30 µM |
| --- | --- |
| COc1ccc2c(c1)CC(=O)N2C(CC(C)C)C(=O)Nc1cnccn1 (stereo not shown) [Example 58, 2-(5-Methoxy-2-oxo-2,3-dihydro-indol-1-yl)-4-methyl-pentanoic acid pyrazin-2-ylamide] | 1.31 |
| CC(C)CC(C(=O)Nc1cnccn1)N1C(=O)C(=O)c2cc(Br)ccc21 (stereo not shown) [Example 68, 2-(5-Bromo-2,3-dioxo-2,3-dihydro-indol-1-yl)-4-methyl-pentanoic acid pyrazin-2-ylamide] | 1.32 |
| CC(C)CC(C(=O)Nc1ccn(C)n1)N1C(=O)C(=O)c2cc(Br)ccc21 (stereo not shown) [Example 70, 2-(5-Bromo-2,3-dioxo-2,3-dihydro-indol-1-yl)-4-methyl-pentanoic acid (1-methyl-1H-pyrazol-3-yl)-amide] | 1.32 |
| CC(C)CC(C(=O)Nc1nccs1)N1C(=O)C(=O)c2cc(Br)ccc21 (stereo not shown) [Example 71, 2-(5-Bromo-2,3-dioxo-2,3-dihydro-indol-1-yl)-4-methyl-pentanoic acid thiazol-2-ylamide] | 1.5 |
